In BigSolDB 2.1:

Cc1ncc([N+](=O)[O-])n1CCO
solubility (mole fraction)
Settings | in chloroform | in ethanol | in ethyl acetate | in isopropanol | in methanol | in n-butanol | in water
293.15 K | 0.00128 | 0.00433 | 0.00299 | 0.00396 | 0.00641 | 0.00533 | 0.000872
297.55 K | 0.0016 | 0.00596 | 0.00395 | 0.00462 | 0.0076 | 0.00576 | –
298.45 K | – | – | – | – | – | – | 0.00104
302.55 K | 0.00226 | 0.00641 | 0.00495 | 0.00559 | 0.00925 | 0.00692 | –
306.95 K | – | – | – | – | – | – | 0.00146
307.55 K | 0.00288 | 0.00763 | 0.00605 | 0.00615 | 0.0112 | 0.00914 | –
308.65 K | – | – | – | – | – | – | 0.00152
312.35 K | 0.0036 | 0.00978 | 0.00713 | 0.00794 | 0.0138 | 0.0111 | –
313.15 K | – | – | – | – | – | – | 0.00181
317.85 K | 0.00418 | 0.0121 | 0.00887 | 0.0102 | 0.017 | 0.0132 | –
318.05 K | – | – | – | – | – | – | 0.00216
322.35 K | – | 0.0145 | 0.0121 | 0.0125 | 0.0201 | 0.0163 | –
322.95 K | – | – | – | – | – | – | 0.00265
